No end group written: not given here.
Experiments:
Ea.hy926 cells [1] = assay: Ammonia generation assay for gtTGase ligation on endothelial cells; type: cell-based; conditions: 4° C.; for NH3 production with TGase isoforms: gtTGase and mTGase, 30 minutes
Protocol: (§1) The solutions were mixed thoroughly and incubated at 4° C. for 30 minutes under static conditions. The cell supernatant was collected and the cells were washed three times with PBS and subjected to further analysis. The assessment of polymer attachment to endothelial cells are assessed by ammonia assay.
The extent of gtTGase ligation was assessed using an ammonia assay kit (Sigma™, MAK310) and used according to the manufacturer's protocols. This kit is used for the quantitative determination of ammonia (NH3), a side product in the gtTGase reaction.^6 This assay is based on the o-phthalaldehyde method in which the reagent reacts with NH3 producing a fluorescent product (λex=360 nm/λm=450 nm), proportional to the NH3 concentration in the sample.^7,8 Briefly, PBS was supplemented with 5 mM CaCl2 and 3 mM dithiothreitol (DTT). In a 96 well plate, containing either endothelial cells or glycine ethyl ether (GEE, amine donor), Q-tagged polymer (acyl donor) and guinea pig liver transglutaminase (gtTGase, Sigma™ T5398) were added to the PBS solution to a final concentration of 5 mM, 0.5 mM and 0.2 U/mL respectively (Vf=100 μL). The reaction was thoroughly mixed and rocked gently at 4° C. for 30 minutes. The sample was diluted four-fold and a 10 μL aliquot of the reaction mixture was then transferred to a tube containing 90 μL complete ammonia assay reagent and mixed thoroughly. The solution was left to react for 15 minutes at ambient temperature in the dark. The fluorescence intensity was measured at λex=360 nm/λem=450 nm using a spectrophotometer and the quantity of ammonia in solution was calculated according to Eq. 1: […]
EA.hy 926 cells plated for 15 days were washed twice with warm PBS before introducing a reaction cocktail containing 0.5 mM polymer, 5 mM CaCl2, 3 mM DTT and 0.2 U/mL transglutaminase made in DMEM media solution without phenol red. The reaction was incubated at 4° C. for 30 minutes. Then the supernatant was removed and subjected to ammonia generation assay and the cells were washed twice with warm PBS to remove unreacted polymers.

Ea.hy926 cells [2] = assay: Cell viability (MTS assay) of modified cells; type: cell-based
Protocol: (§2) Cell viability measurements were performed on modified cells after washing with warm PBS twice. Then, the cells were subjected to MTS (3-(4,5-dimethylthiazol-2-yl)-5-(3-carboxymethoxyphenyl)-2-(4-sulfophenyl)-2H-tetrazolium) assay kit (Cell Titer 96 Aqueous One solution Cell Proliferation Assay™) and by following the manufacturer's protocol. All recorded values were normalized to healthy cells untreated with polymers. Platelet activation was performed by PE-labelled anti human […] stain was prepared by diluting 20 times using plasma. An aliquot of each platelet sample was labelled using the diluted PE-labelled anti-human […] solution (1:10 dilution) for 30 minutes at room temperature. Platelets incubated in 0.1 mM TRAP were used as positive control and platelets incubated in PE-labelled IgG were used for non-specific binding control. Each sample was analyzed for 10000 platelet events. Each experiment was replicated using a minimum of 3 donors and each donor was performed in triplicates. For human pancreatic islets, live/dead imaging assay was used for cell viability and DTZ detection assay was used to determine insulin-producing beta cells from mixed cell cultures.

HMEC-1 cell monolayers = assay: Transendothelial protein passage (FITC-labelled BSA); type: cell-based; conditions: TNF-α 2000 U/mL, 3 hours; 0.5 mM polymer
[3] = test system: IL-2 activated PBMCs on TNF-α activated Ea.hy926 monolayers; assay: PBMC adhesion to endothelial surfaces; type: cell-based, human
Protocol: Confluent Ea.hy926 monolayers seeded in a 48 well plate (30,000 cells/well) were activated with TNF-α (2000 U/mL, 3 hours). To obtain PBMCs, EDTA anticoagulated blood from healthy donors was subjected to ficoll density gradient centrifugation Histopaque™-1077 (Sigma Aldrich™). PBMCs were cultured for 24 h in RPMI-1640 containing 10% FBS (v/v), 1000 U/mL recombinant human IL-2 (Cedarlane™)^11 and 1% P/S. Prior to fluorescent labelling, cultured PBMCs were tested for absence of platelets by labelling an aliquot of cells with FITC-labelled anti-human […] (1:200 Beckman Coulter™) and analyzed by flow cytometry (CytoFLEX™, Beckman Coulter™). PBMCs containing <1% platelets were implemented for further study. The PBMC composition was also measured using a hematological analyzer (XN-550™ automated hematology analyzer, Sysmex Canada Inc.™). Following IL-2 treatment the typical composition of the PBMCs were ˜80% lymphocytes, 5% immature granulocytes, 2% basophils and 13% monocytes. […] PMBC adhesion was quantified by lysing the cells with RIPA buffer, spinning at 15,000 g to remove cell debris and measuring the fluorescent intensity of the CMFDA Dye in the lysate (λex/λem=492/517 nm using a plate reader (Spectramax3™, Molecular Devices™).

EA.hy 926 monolayers = assay: PMS-induced glycocalyx shedding (WGA stain, flow cytometry); type: cell-based; conditions: compared to non-sulfated counterparts
Protocol: EA.hy 926 cells were grown to confluency. Media was replaced, washed with DPBS and incubated with […] NADH, […] PMS (unless otherwise noted) and the indicated concentration of polymer; with PMS being last to be added. […] The cells were then washed extensively, stained using WGA ([…]) for 15 minutes and harvested to be analyzed using flow cytometry. Neuraminidase enzyme was used as a positive control to shed the glycocalyx.

[4] = test system: BALB/c aortic allograft in C57/BL/6 recipient; assay: Serum cytokine array after aortic interposition grafting; type: in vivo, mouse; conditions: 2 days and 15 days post-transplant, 0.5 mM LPGS-Q
Protocol: To assess the immune modulatory effect of enzymatic polymer grafting, an antibody array kit based on a sandwich ELISA principle (Proteome Profiler™, Panel A; R&D Systems™) was used to screen the cytokine and chemokine expression level in sera of animals according to the manufacturer's protocol. Relative expression of 40 murine cytokines and chemokines captured by corresponding antibodies spotted on a nitro-cellulose membrane was determined.
The antibodies for the following cytokines were spotted on the membrane: BLC, C5a, G-CSF, GM-CSF, I-309, Eotaxin, sICAM-1, IFN-g, IL-1a, IL-1b, IL-1ra, IL-2, IL-3, IL-4, IL-5, IL-6, IL-7, IL-10, IL-13, IL-12 p70, IL-16, IL-17 IL-23, IL-27, CXCL10 (IP-10), I-TAC, KC, M-CSF, CCL2 (MCP-1), CCL12 (MCP-5), MIG, CCL3 (MIP-1a), CCL4 (MIP-1b), CXCL2 (MIP-2), CCL5 (RANTES), SDF-1, TARC, TIMP-1, TNF-α, TREM-1. […] Following the blocking step for 1 h at 4° C., a mixture of detection antibody cocktail and 100 μL of serum sample was incubated overnight at 4° C. with the membrane. Captured proteins were labeled with a streptavidin-functionalized IR-Dye (IRDye 680RD Streptavidin; LI-COR) (1:20,000 dilution in 10% bovine serum albumin, 30 min at RT) and scanned using a LI-COR Odyssey Infrared Imaging System™. The software ImageJ™ (Version 1.52s) was used to determine the integrated density of the spots on the array images after background subtraction. […]

platelets = assay: Platelet activation (CD62, flow cytometry); type: cell-based, human; conditions: 4° C.
Protocol: as §1
as §2, with “For human pancreatic islets, live/dead imaging assay was used for cell viability and DTZ detection assay was used to determine insulin-producing beta cells from mixed cell cultures.” left out

human pancreatic islets = assay: Compatibility of cell surface engineering on pancreatic islets (LIVE/DEAD, DTZ); type: cell-based; conditions: 0.5 mM polymer, room temperature, 30 minutes
Protocol: FIG. 57: Compatibility of cell surface engineering on human pancreatic islet surfaces using gtTGase. Human pancreatic islets were incubated with 0.5 mM Q-tagged polymer, 0.2 U ml-1 gtTGase, 3 mM GSH and 5 mM CaCl2 at room temperature for 30 minutes. Cell viability was assessed using a LIVE/DEAD stain assay and insulin producing activity was assessed by DTZ detection assay.
as §2, with “For human pancreatic islets, live/dead imaging assay was used for cell viability and DTZ detection assay was used to determine insulin-producing beta cells from mixed cell cultures.” left out

[5] = test system: TNF-α activated Ea.hy926 cells co-cultured with IL-2 activated PBMCs; assay: PBMC-mediated cytotoxicity (LDH assay); conditions: polymer ligated to cell surface
Protocol: EA.hy 926 monolayers were activated using TNF-α and PBMCs were activated using IL-2 as described in PBMC adhesion experiments. Following activation, PBMC was collected and resuspended in DMEM (Phenol free, 5% FBS, pen/strep). PBMCs were then added to activated EA.hy 926 monolayers (modified and unmodified) to a final concentration of 0.15×10^6 cells/mL and left to incubate at 37° C. and 5% CO2 for 18 hour. After treatment, the supernatant was collected and cell debris was removed through centrifugation. LDH content was measured using LDC cytotoxicity assay (Biovision Inc.™). Cytotoxicity was calculated using the equation below;
where, LDHsample is the amount of LDH released from the sample, LDHPBMC is the amount of LDH released from PBMC samples not subjected to EA.hy 926 monolayers, LDHalive is the amount of LDH released from EA.hy 926 monolayers not subjected to PBMCs, and LDHdead is the amount of LDH released of EA.hy926 monolayers treated with RIPA buffer for 10 minutes at room temperature.

Row | Substance | NH3 production with TGase isoforms (Ea.hy926 cells [1]) | cell viability with TGase isoforms (Ea.hy926 cells [2]) | NH3 production (surface ligation efficiency) (Ea.hy926 cells [1]; 0.5 mM polymer, gtTGase, 30 min) | permeability of the monolayer after TNF-α activation (HMEC-1 cell monolayers) | PBMC adhesion, in words [3] | cell metabolic activity after bioconjugation (Ea.hy926 cells [2]) | cell viability under oxidative stress (Ea.hy926 cells [2]; cells grown 15 days, superoxide radicals) | retention of the glycocalyx structure after exposure to superoxide anions (EA.hy 926 monolayers) | cytokine profile of sera of recipient mice [4] | platelet activation (CD62 surface markers) (platelets) | cell viability and insulin producing activity (human pancreatic islets) | PBMC-mediated endothelial cell death, in words [5]
1 | WLAQRPH-PEG: Q-tagged PEG polymer used to compare TGase isoforms (also: conjugated to PEG, site not given here) [reference compound] | favourable results | favourable results |  |  |  |  |  |  |  |  |  | 
2 | GQQQLGGGGG-PEG: Q-tagged PEG polymer used to compare TGase isoforms (also: conjugated to PEG, site not given here) [reference compound] | favourable results | favourable results |  |  |  |  |  |  |  |  |  | 
3 | Linear polyglycerol sulfate glutamine [LPGS-Q] |  |  | higher ammonia production than its non-sulfated counterparts | reduce non-specific macromolecule passage | evading recognition and subsequent adhesion | without affecting cell metabolic activity | rescue of the cells viability | significantly larger retention of the glycocalyx structure | beneficial anti-inflammatory properties post-transplantation | did not induce platelet activation | still produce viable cells | reducing PBMC-mediated cytotoxicity

Source: patent US20250059499A1, “CELL-SURFACE ENGINEERING COMPOSITIONS AND METHODS FOR THE PREVENTION OF IMMUNE REJECTION” (THE UNIVERSITY OF BRITISH COLUMBIA, priority 2021, published 2025)
